Measured values from ChEMBL document CHEMBL2073906, “Interactions of ofloxacin and erythromycin with the multidrug resistance protein (MRP) in MRP-overexpressing human leukemia cells” (Antimicrob Agents Chemother, 2000).

Columns and labels:
[1] = biological target: T1, Multidrug resistance-associated protein 1 (Homo sapiens, UniProt P33527); experiment: TP_TRANSPORTER: increase in Vincristine intracellular accumulation (Vincristine: 0.03 uM, Erythromycin: 14.7 mg/mL) in HL60R cells: flow cytometric analysis; format: functional, cell-based
[2] = biological target: T1, Multidrug resistance-associated protein 1; experiment: TP_TRANSPORTER: increase in Vincristine intracellular accumulation (Vincristine: 0.03 uM, Ofloxacin: 21.7 mg/mL) in HL60R cells: flow cytometric analysis; format: functional, cell-based

T1 sequence (P33527 whole entry): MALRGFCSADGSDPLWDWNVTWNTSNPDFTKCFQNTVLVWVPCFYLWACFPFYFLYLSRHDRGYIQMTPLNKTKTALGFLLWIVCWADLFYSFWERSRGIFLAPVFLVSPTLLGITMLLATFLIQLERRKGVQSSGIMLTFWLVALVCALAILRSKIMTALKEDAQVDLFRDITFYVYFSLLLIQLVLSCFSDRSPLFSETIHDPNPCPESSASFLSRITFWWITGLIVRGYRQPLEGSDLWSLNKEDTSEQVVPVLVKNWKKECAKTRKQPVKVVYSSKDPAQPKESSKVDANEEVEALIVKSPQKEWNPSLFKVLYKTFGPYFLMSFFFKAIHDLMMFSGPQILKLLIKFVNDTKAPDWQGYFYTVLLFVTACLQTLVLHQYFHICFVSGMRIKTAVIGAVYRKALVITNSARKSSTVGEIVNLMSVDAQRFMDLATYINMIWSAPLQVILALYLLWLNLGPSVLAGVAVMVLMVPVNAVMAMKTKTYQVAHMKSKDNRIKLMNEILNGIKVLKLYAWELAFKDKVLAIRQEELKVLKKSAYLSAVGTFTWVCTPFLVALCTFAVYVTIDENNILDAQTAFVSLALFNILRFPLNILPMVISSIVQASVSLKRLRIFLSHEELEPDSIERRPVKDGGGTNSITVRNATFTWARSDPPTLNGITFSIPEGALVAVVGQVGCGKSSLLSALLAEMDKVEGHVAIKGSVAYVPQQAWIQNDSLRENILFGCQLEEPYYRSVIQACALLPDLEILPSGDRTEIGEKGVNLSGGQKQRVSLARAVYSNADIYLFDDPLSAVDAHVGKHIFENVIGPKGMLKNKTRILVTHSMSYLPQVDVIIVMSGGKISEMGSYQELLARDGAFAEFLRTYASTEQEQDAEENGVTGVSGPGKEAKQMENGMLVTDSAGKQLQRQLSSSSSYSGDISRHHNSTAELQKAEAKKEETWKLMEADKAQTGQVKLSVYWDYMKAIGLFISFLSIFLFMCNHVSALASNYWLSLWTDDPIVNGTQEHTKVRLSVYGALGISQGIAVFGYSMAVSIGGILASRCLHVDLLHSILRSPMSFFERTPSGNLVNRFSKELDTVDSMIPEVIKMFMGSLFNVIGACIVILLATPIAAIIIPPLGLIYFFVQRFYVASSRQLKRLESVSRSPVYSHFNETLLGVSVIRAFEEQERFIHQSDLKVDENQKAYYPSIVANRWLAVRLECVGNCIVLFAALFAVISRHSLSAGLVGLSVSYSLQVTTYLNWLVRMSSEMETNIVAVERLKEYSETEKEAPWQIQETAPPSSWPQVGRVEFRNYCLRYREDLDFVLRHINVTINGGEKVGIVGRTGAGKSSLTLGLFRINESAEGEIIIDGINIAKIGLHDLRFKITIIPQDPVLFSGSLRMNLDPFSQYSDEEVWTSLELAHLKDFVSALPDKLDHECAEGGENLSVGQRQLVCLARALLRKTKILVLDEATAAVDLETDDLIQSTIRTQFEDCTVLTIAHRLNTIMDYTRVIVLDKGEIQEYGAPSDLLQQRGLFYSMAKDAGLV

Row | Activity [1] | Activity [2] | Structure (SMILES)
1 | 0.16 |  | CC[C@H]1OC(=O)[C@H](C)[C@@H](O[C@H]2C[C@@](C)(OC)[C@@H](O)[C@H](C)O2)[C@H](C)[C@@H](O[C@@H]2O[C@H](C)C[C@H](N(C)C)[C@H]2O)[C@](C)(O)C[C@@H](C)C(=O)[C@H](C)[C@@H](O)[C@]1(C)O [ERYTHROMYCIN]
2 |  | 0.29 | CC1COc2c(N3CCN(C)CC3)c(F)cc3c(=O)c(C(=O)O)cn1c23 (configuration not stated) [OFLOXACIN]
